Values after ≈ are worked out from the molar mass of the structure shown. Where two headings read alike, the source gives them in different places.
Key:
Assay in all cases: Antibacterial activity MIC assay (two-fold dilution agar plating)
Type in all cases: cell-based
[1] = test system: Providencia rettgeri; conditions: Providencia rettgeri, ATCC31052, Providencia rettgeri ATCC 31052; read-out: Minimal Inhibitory Concentration (MIC)
Experimental: (§1) Antibacterial Activity-Evaluating Method (MIC Assay)
(§2) In this study, the compounds of the present invention were tested for their antibacterial activities by using two-fold dilution agar plating method and Denley Multipoint Inoculator A400 according to the guidelines of the CLSI/NCCLS standard. The tested strains were amplified by hydrolyzed casein peptone (Mueller-Hinton Agar) broth and Brain and Heart Infusion. The strains used in this study were bacterial strains that were purchased from ATCC or clinically isolated in Chinese hospitals. Aztreonam, polymyxin or levofloxacin was used as positive control. The drugs were diluted with hydrolyzed casein peptone broth to the desired concentrations including 128.0, 64.0, 32.0, 16.0, 8.0, 4.0, 2.0, 1.0, 0.5, 0.25, 0.125, 0.06 and 0.03 μg/mL, and then placed respectively into each well and mixed thoroughly. After inoculation, the tested strains were incubated for 18 hours at a constant temperature of 35° C., and their growth levels were observed. The drug concentration with no microbial growth in the well was recorded as the lowest Minimal Inhibitory Concentration (MIC).

[2] = test system: Citrobacter freundii; conditions: ATCC43864; Citrobacter freundii ATCC 43864; read-out: Minimal Inhibitory Concentration (MIC)
Experimental: as §1, §2

[3] = test system: Shigella flexneri; conditions: ATCC12022; Shigella flexneri ATCC 12022; read-out: Minimal Inhibitory Concentration (MIC)
Experimental: as §1, §2

[4] = test system: Enterobacter aerogenes; conditions: Klebsiella aerogenes, ATCC13048; Enterobacter aerogenes ATCC 13048; read-out: Minimal Inhibitory Concentration (MIC)
Experimental: as §1, §2

[5] = test system: Serratia marcescens; conditions: ATCC21074; Serratia marcescens ATCC 21074; read-out: Minimal Inhibitory Concentration (MIC)
Experimental: as §1, §2

[6] = test system: Klebsiella Pneumoniae; conditions: Klebsiella pneumoniae, read-out: Minimal Inhibitory Concentration (MIC)
Experimental: as §1, §2

[7] = test system: Proteus mirabilis; conditions: Proteus mirabilis, ATCC49565, Proteus mirabilis ATCC 49565; read-out: Minimal Inhibitory Concentration (MIC)
Experimental: as §1, §2

[8] = test system: Pseudomonas aeruginosa; conditions: read-out: Minimal Inhibitory Concentration (MIC)
Experimental: as §1, §2

[9] = test system: Escherichia coli; conditions: Escherichia coli, read-out: Minimal Inhibitory Concentration (MIC)
Experimental: as §1, §2

[10] = test system: Acinetobacter baumannii; conditions: Acinetobacter baumannii, read-out: Minimal Inhibitory Concentration (MIC)
Experimental: as §1, §2

[11] = test system: Stenotrophomonas maltophilia; conditions: ATCC13636; Stenotrophomonas maltophilia ATCC 13636; read-out: Minimal Inhibitory Concentration (MIC)
Experimental: as §1, §2

[12] = test system: Proteus vulgaris; conditions: Proteus vulgaris, ATCC29905, Proteus vulgaris ATCC 29905; read-out: Minimal Inhibitory Concentration (MIC)
Experimental: as §1, §2

[13] = test system: Enterobacter cloacae; conditions: read-out: Minimal Inhibitory Concentration (MIC)
Experimental: as §1, §2

[14] = test system: Salmonella typhi; conditions: Salmonella enterica, TYPHI, read-out: Minimal Inhibitory Concentration (MIC)
Experimental: as §1, §2

[15] = ATCC700603, Klebsiella Pneumoniae ATCC 700603, ESBLs(+)
[16] = ATCCBAA2146, Klebsiella Pneumoniae ATCC BAA-2146, NDM-1(+)
[17] = Klebsiella Pneumoniae 09-20, mcr-1(+)
[18] = Klebsiella Pneumoniae 16-2, ESBLs(−)
[19] = Klebsiella Pneumoniae 16-14, ESBLs(+)
[20] = Klebsiella Pneumoniae 17-R27, CRE
[21] = ATCC27853, Pseudomonas aeruginosa ATCC 27853
[22] = ATCC25922, Escherichia coli ATCC 25922, ESBLs(−)
[23] = ATCC35218, Escherichia coli ATCC 35218, ESBLs(+)
[24] = Escherichia coli 08-85, mcr-1(+)
[25] = Escherichia coli 13-43, mcr-1(+)
[26] = Escherichia coli 13-66, mcr-1(+)
[27] = Escherichia coli 16-1, ESBLs(+)
[28] = Escherichia coli 16-7, ESBLs(−)
[29] = Escherichia coli 17-R28, CRE, NDM-1(+)
[30] = Escherichia coli CDC1001728, NDM-1(+)
[31] = ATCC19606, Acinetobacter baumannii ATCC 19606
[32] = ATCC43560, Enterobacter cloacae ATCC 43560
[33] = Enterobacter cloacae CDC1000654

## CC(C)[C@H](O/N=C(\C(=O)N[C@@H]1C(=O)N(OS(=O)(=O)O)C1(C)C)c1csc(N)n1)C(=O)O [Compound A-4]
[1]
  MIC: ≤ 0.03 µg/mL
[2]
  MIC: 0.12 µg/mL (≈ 0.25 µM)
[3]
  MIC: 0.25 µg/mL (≈ 0.521 µM)
[4]
  MIC: 0.5 µg/mL (≈ 1.04 µM)
[5]
  MIC: 0.25 µg/mL (≈ 0.521 µM)
[6]; [15]
  MIC: 2 µg/mL (≈ 4.17 µM)
[6]; [16]
  MIC: 0.5 µg/mL (≈ 1.04 µM)
[6]; [17]
  MIC: 0.12 µg/mL (≈ 0.25 µM)
[6]; [18]
  MIC: 1 µg/mL (≈ 2.09 µM)
[6]; [19]
  MIC: 0.25 µg/mL (≈ 0.521 µM)
[6]; [20]
  MIC: 0.25 µg/mL (≈ 0.521 µM)
[7]
  MIC: ≤ 0.03 µg/mL
[8]; [21]
  MIC: 8 µg/mL (≈ 16.7 µM)
[8]; Pseudomonas aeruginosa 16-11
  MIC: 8 µg/mL (≈ 16.7 µM)
[8]; Pseudomonas aeruginosa PAO1
  MIC: 4 µg/mL (≈ 8.34 µM)
[9]; [22]
  MIC: 0.25 µg/mL (≈ 0.521 µM)
[9]; [23]
  MIC: 0.12 µg/mL (≈ 0.25 µM)
[9]; [24]
  MIC: 0.25 µg/mL (≈ 0.521 µM)
[9]; [25]
  MIC: 0.25 µg/mL (≈ 0.521 µM)
[9]; [26]
  MIC: 0.25 µg/mL (≈ 0.521 µM)
[9]; [27]
  MIC: 0.12 µg/mL (≈ 0.25 µM)
[9]; [28]
  MIC: 0.25 µg/mL (≈ 0.521 µM)
[9]; [29]
  MIC: 8 µg/mL (≈ 16.7 µM)
[9]; [30]
  MIC: 0.5 µg/mL (≈ 1.04 µM)
[10]; [31]
  MIC: 64 µg/mL (≈ 133 µM)
[10]; Acinetobacter baumannii 16-16
  MIC: > 64 µg/mL
[10]; Acinetobacter baumannii 16-33
  MIC: 32 µg/mL (≈ 66.7 µM)
[11]
  MIC: 8 µg/mL (≈ 16.7 µM)
[12]
  MIC: ≤ 0.03 µg/mL
[13]; [32]
  MIC: 0.12 µg/mL (≈ 0.25 µM)
[13]; [33]
  MIC: 1 µg/mL (≈ 2.09 µM)
[14]
  MIC: 0.12 µg/mL (≈ 0.25 µM)

## CC(C)[C@@H](O/N=C(\C(=O)N[C@@H]1C(=O)N(OS(=O)(=O)O)C1(C)C)c1csc(N)n1)C(=O)O [Compound A-5]
[1]
  MIC: 4 µg/mL (≈ 8.34 µM)
[2]
  MIC: 16 µg/mL (≈ 33.4 µM)
[3]
  MIC: 64 µg/mL (≈ 133 µM)
[4]
  MIC: 32 µg/mL (≈ 66.7 µM)
[5]
  MIC: 32 µg/mL (≈ 66.7 µM)
[6]; [15]
  MIC: 64 µg/mL (≈ 133 µM)
[6]; [16]
  MIC: > 64 µg/mL
[6]; [17]
  MIC: 16 µg/mL (≈ 33.4 µM)
[6]; [18]
  MIC: 32 µg/mL (≈ 66.7 µM)
[6]; [19]
  MIC: 16 µg/mL (≈ 33.4 µM)
[6]; [20]
  MIC: 32 µg/mL (≈ 66.7 µM)
[7]
  MIC: 1 µg/mL (≈ 2.09 µM)
[8]; [21]
  MIC: > 64 µg/mL
[8]; Pseudomonas aeruginosa 16-11
  MIC: > 64 µg/mL
[8]; Pseudomonas aeruginosa PAO1
  MIC: > 64 µg/mL
[9]; [22]
  MIC: 16 µg/mL (≈ 33.4 µM)
[9]; [23]
  MIC: 16 µg/mL (≈ 33.4 µM)
[9]; [24]
  MIC: 32 µg/mL (≈ 66.7 µM)
[9]; [25]
  MIC: 32 µg/mL (≈ 66.7 µM)
[9]; [26]
  MIC: 16 µg/mL (≈ 33.4 µM)
[9]; [27]
  MIC: 8 µg/mL (≈ 16.7 µM)
[9]; [28]
  MIC: 32 µg/mL (≈ 66.7 µM)
[9]; [29]
  MIC: > 64 µg/mL
[9]; [30]
  MIC: 32 µg/mL (≈ 66.7 µM)
[10]; [31]
  MIC: > 64 µg/mL
[10]; Acinetobacter baumannii 16-16
  MIC: > 64 µg/mL
[10]; Acinetobacter baumannii 16-33
  MIC: > 64 µg/mL
[11]
  MIC: > 64 µg/mL
[12]
  MIC: 4 µg/mL (≈ 8.34 µM)
[13]; [32]
  MIC: 16 µg/mL (≈ 33.4 µM)
[13]; [33]
  MIC: > 64 µg/mL
[14]
  MIC: 32 µg/mL (≈ 66.7 µM)

Source: patent US12497393B2, “β-lactam compound, use thereof and preparation method therefor” (priority 2020, dated 2025)
